Experimental data taken from US11352604B2, “Method of making cardiomyocytes from human pluripotent cells” (Wisconsin Alumni Research Foundation, priority 2016, dated 2022).

Experiments:
Format in all cases: cell-based, human
[1] = tested on: hPSC-CMs; assay: Immunofluorescence cell size (area of cTnT staining); settings: day 30, pI:C-treated vs untreated progenitors
Description: For internal antigens, cells were rinsed of media two times in PBS, fixed for 10 minutes in 4% paraformaldehyde at RT, rinsed three times again in PBS, then blocked for 1 hour at room temperature (RT) in Licor blocking buffer containing 0.2% Triton x-100 (Sigma). Blocking solution was aspirated and antibodies added overnight at 4° C. in fresh blocking/permeabilization solution. Antibodies used were mouse cardiac troponin T (Thermo Fisher Scientific, 1:200), rabbit WT1 (Abcam 1:200), mouse smooth muscle myosin heavy chain (Abcam, 1:200), goat Jag1 c-terminal domain (1:200 Abcam), MMP1 (Abcam, 1:200), mouse cardiac actin (Sigma, 1:200), rabbit SLC25A4 (Proteintech, 1:100), rabbit DBT (Proteintech, 1:100), rabbit ATP5F1 (Proteintech, 1:100), rabbit Irx4 (Abcam, 1:200), goat nkx2.5 (Santa Cruz, 1:50), mouse connexin 40 (Thermo Fisher Scientific, 1:200), and fibroblast-specific protein (Abcam, 1:100). After primary and secondary antibodies, cells were rinsed two times in PBS with 0.2% triton x-100. Donkey secondaries conjugated to Alexa Fluor dyes were used at 1:1000 and incubated at RT for 1 h. DAPI or Hoechst was used to visualize nuclei. Cells were imaged either on an EVOS system in wells (Thermo Fisher Scientific) or a Leica confocal microscope in cover glass or ibidi 8-well microslides. Image J was used to quantify cell area by outer boundaries of cTnT staining.

[2] = tested on: day 5 cardiac progenitors; assay: Gene ontology / KEGG pathway analysis of pI:C up- and downregulated RNA-seq genes; settings: pI:C top upregulated GO terms
Description: Day-5 cells from d3-5 untreated, TGFβ-treated, and pI:C-treated progenitors from the 19-9-11 iPS cell line were separately prepared as above for cell dissociation of progenitors from three different wells of each condition (for 9 total sequencing samples) and isolated as described above for RNA for RT-qPCR. rRNA-reduced Illumina TruSeq™ Stranded total RNA libraries were prepared and 1×100 bp single end sequencing was performed. To map and annotate RNA-seg data, STAR and HTSeq were used, respectively (Anders et al., 2015; Dobin and Gingeras, 2015). Annotated transcript counts were further processed with DeSEq2 for differential gene expression analysis (Love et al., 2014). Gene neighborhood analysis was performed with NEST (Jiang et al., 2015).

[3] = tested on: hPSC-CMs; assay: Seahorse oxygen consumption rate; settings: cardiomyocytes from treated vs untreated progenitors
Description: After hPSC-CM dissociation of day 40-70 lactate-purified hPSC-CMs from the H9 cTnT-GFP reporter cell line, 25,000 cells per well were replated into Synthemax®-coated wells of Seahorse XF96 V3 PS cell culture plates (Agilent). Plates were analyzed for basal and maximal oxygen consumption rate with a Seahorse XF cell mito stress kit according to the manufacturer's instructions (Agilent) using concentrations of 1 μM oligomycin, 2 μM FCCP, and 0.5 μM Rotenone/antimycin A. Purity was determined by dissociating seahorse wells after analysis and doing live cell flow cytometry for cTnT-GFP. To directly compare data between plate runs/biological replicates, the fold change between hPSC-CMs from pI:C− and pI:C+ progenitors was computed for each sample's maximal and basal oxygen consumption rate normalized to total protein estimated after cell lysis in EBC buffer. Log2 of the fold changes was tested for significance in a one-sample t test against a null hypothesis of 0.

[4] = tested on: hPSC-CMs; assay: Cardiomyocyte yield and purity in GiWi differentiation; settings: day 30, pI:C alone vs untreated
Description: To differentiate cardiomyocytes from hPSCs, the small molecule temporal modulation of the Wnt pathway (GiWi) monolayer protocol was used essentially as previously described (Lian et al., 2012). Human embryonic or induced pluripotent stem cells were dissociated with Versene (Thermo Fisher Scientific) for 6 minutes at 37° C., pipetted up and down 40 times, counted with a hemocytometer, spun down at 100×g for 5 minutes, and resuspended and seeded for differentiation at 1.5 million cells per well in 6 well plates or 0.4 million per well in 12 well plates in mTeSR® on stem-cell verified Matrigel® (WiCell) containing 10 μM Y-27632 ROCK-inhibitor (Tocris). After four days in mTeSR® (WiCell), at which point cells grew to 100 percent confluence, medium was switched to RPMI supplemented with B27 supplement not containing insulin (Thermo Fisher Scientific) and containing 12 μM of the Wnt agonist CHIR99021 (Tocris) for exactly 24 hours. Media was then changed to RPMI supplemented with B27 not containing insulin for exactly 48 hours. Then medium was then switched at day 3 to RPMI supplemented with B27 not containing insulin and containing 5 μM IWP2 (Tocris). At day 5, media was switched to RPMI supplemented with B27 not containing insulin for two days. At day 7 and every three days afterward, medium was replaced with RPMI supplemented with B27 containing insulin (Thermo Fisher Scientific). […]

[5] = tested on: day 5 cardiac progenitors; assay: Methylcellulose colony-forming assay; settings: 1% methylcellulose, four days, size >35 μm
Description: Day-5 cardiac progenitors from the 19-9-11 cell line were dissociated as above, but then passed 10 times through a syringe with 18 gauge needle and filtered twice through a 45 μm flow cytometry cell strainer. The cells were then counted and 100,000 cells were then mixed with 2 mL of K20 medium plus 10 μM Y-27632 ROCK-inhibitor (Tocris) containing 1% ES-Cult methylcellulose (Stemcell Technologies) and grown in one 6-well of a corning Ultra Low Attachment plate. ImageJ was used to measure colony diameter four days later and single cells observed the first day and after had diameters less than 35 μm.

[6] = tested on: day 5 cardiac progenitor cells; assay: Propidium iodide cell cycle flow cytometry; settings: day 5 cardiac progenitor cells
Description: Propidium iodide staining was performed on ethanol-fixed cells of the 19-9-11 iPS cell line with a low flow rate and linear mode fluorescence according to a previously published protocol (Darzynkiewicz and Juan, 2001).

[7] = KEGG_PATHWAY hsa03030:DNA replication
[8] = KEGG_PATHWAY hsa03430:Mismatch repair
[9] = KEGG_PATHWAY hsa03460:Fanconi anemia pathway
[10] = KEGG_PATHWAY hsa04110:Cell cycle
[11] = KEGG_PATHWAY hsa05034:Alcoholism
[12] = KEGG_PATHWAY hsa05203:Viral carcinogenesis
[13] = KEGG_PATHWAY hsa05322:Systemic lupus erythematosus

Q: Which results are given for polyinosinic-polycytidylic acid [pI:C]?
A: hPSC-CM cell size [1]: twice as large; % (genes in term) [2, 7]: 2.3989%; Count (upregulated genes in term) [2, 7]: 18; % (genes in term) [2, 8]: 1.0662%; Count (upregulated genes in term) [2, 8]: 8; % (genes in term) [2, 9]: 1.3327%; Count (upregulated genes in term) [2, 9]: 10; % (genes in term) [2, 10]: 1.9991%; Count (upregulated genes in term) [2, 10]: 15; % (genes in term) [2, 11]: 4.6645%; Count (upregulated genes in term) [2, 11]: 35; % (genes in term) [2, 12]: 3.1985%; Count (upregulated genes in term) [2, 12]: 24; % (genes in term) ([2]; KEGG_PATHWAY hsa05218:Melanoma): 1.3327%; Count (upregulated genes in term) ([2]; KEGG_PATHWAY hsa05218:Melanoma): 10; % (genes in term) [2, 13]: 4.7978%; Count (upregulated genes in term) [2, 13]: 36; basal oxygen consumption rate [3]: approximately 2 fold; maximal oxygen consumption rate [3]: approximately 2 fold; yield of cardiomyocytes [4]: more than double the yield; colony formation [5]: abundant multi-cellular colonies; fraction of cells in the G2/S phase of the cell cycle [6]: increased
